{"source": "patent US20240027479A1", "about": "“A Comprehensive Breath Test that Confirms Recent Use of Inhaled Cannabis within the Impairment Window” (RCU Labs, Inc., priority 2018, published 2024)", "key": {"[1]": {"assay": "Cannabinoids and Δ^9-THC metabolites in capillary blood (LC-HRMS)", "conditions": "pre-smoking", "excerpt": "The complex nature of cannabinoid pharmacokinetics and pharmacodynamics calls for a new approach for effectively determining recent use of cannabis within the impairment window. We sought to develop a multiple-parameter test based on pharmacological changes in Δ^9-THC and its metabolites in blood over time. This approach requires the collection of two samples separated by a known time interval, which is a critical difference compared to current blood testing methods that rely on the collection of a single sample. The two-sample strategy makes possible the detection of Δ^9-THC in its distribution phase where the half-life is very short [Moeller M R. et al., J Forensic Sci 37:969-83 (1992); Wall M E. et al., Clin Pharmacol Ther 34:352-63 (1983)], which occurs only within the first few hours after smoking, and for the evaluation of how Δ^9-THC metabolite levels in blood are changing with time relative to Δ^9-THC. A liquid chromatography high-resolution mass spectrometry (LC-HRMS) bioanalytical method for the quantification of cannabinoids in microsamples (50 μL) of whole blood was developed and validated for this purpose [DeGregorio M W. et al., J AOAC Int 103:725-35 (2020)].\nA total of 92 subjects were included in clinical trials designed to evaluate the feasibility of the described method for determining recent cannabis use (blood-based study in 48 subjects) and recent cannabis use and impairment (breath- and blood-based study in 44 subjects). Each subject was given a single cannabis cigarette and instructed to smoke as much of it as possible within a 10-minute period. Cigarettes containing 500 mg of dried cannabis flower were prepared immediately before each smoking session. During the studies, subjects were given a variety of cannabis chemovars to smoke, with Δ^9-THC content ranging from a low of 8.5% to a high of 28.4%. A wide variety of chemovars was included to account for the variability in Δ^9-THC potencies available in numerous cannabis retail establishments in the various U.S. states where recreational and/or medicinal cannabis has been legalized. Capillary blood samples ([…] collected at various time points prior to smoking and up to 200 minutes after smoking, were obtained from a total of 92 subjects using a variety of methods including lancets and two types of automated blood collection devices. Exhaled breath samples were collected from a total of 44 subjects at various time points prior to smoking and up to 240 minutes post-smoking. Breath samples were collected using devices equipped with electrostatic polymer filters and that are designed to collect approximately 20 L of exhaled breath through normal breathing. The time required for breath sample collection was approximately 2-3 minutes. A total of 74 subjects were asked to self-assess their level of impairment before smoking and at each designated sampling time point after smoking based on a scale ranging from 0 (not impaired) to 10 (very impaired) as shown in FIG. 2. As a physical indicator of impairment, 44 subjects were evaluated for horizontal gaze nystagmus.\nOne of the first endpoints investigated during clinical development of the recent use test method was whether there is any relationship between blood Δ^9-THC levels and impairment. Prior to smoking, Δ^9-THC blood concentrations were evaluated in a group of 30 subjects before and up to 200 minutes after smoking a 500-mg cannabis cigarette and compared to a common legal limit (5 ng/mL) for establishing driver impairment due to cannabis."}, "[2]": {"assay": "Presence of cannabinoids in exhaled breath before and after smoking (LC-HRMS)", "format": "in vivo, human", "method": "(§1) The positive recent use test results outside of the three-hour impairment window based on blood sampling alone led to the incorporation of a second testing matrix, exhaled breath, to strengthen the results of the test method so that cannabis users who are within the impairment window after smoking can be more accurately identified. For this purpose, a total of 44 additional subjects were evaluated in a smoking study in which both exhaled breath and blood samples were collected and then analyzed by LC-HRMS for cannabinoids and Δ^9-THC metabolites. As with the 48-subject blood-based study, subjects were given a 500-mg cannabis cigarette to smoke, and breath and blood samples were collected at various time points before and after smoking."}, "[3]": {"assay": "Cannabinoid half-lives in exhaled breath, multi-point breath sampling", "format": "in vivo, human", "conditions": "for Cannabinoid Half-Lives (min) in breath, back-to-back sampling: individual subject", "method": "as §1\nThese included the presence of CBN, CBC, CBG, Δ^9-THCV, and CBGA, and short half-lives (<60 minutes) for Δ^9-THC, CBN, CBC, CBG, and Δ^9-THCV (see Table 5 below). […] Pre-smoking, half-lives were calculable for Δ^9-THC in only three subjects.\nEvidence of recent cannabis use by inhalation through smoking or vaping dissipates rapidly in exhaled breath, and thus allowing 20 minutes between breath samplings, which was employed in the blood-based study and for most of the subjects in the blood and breath-based study, may result in the loss of valuable data. In the last nine subjects involved in the exhaled breath study, a back-to-back sample collection strategy was employed whereby two exhaled breath samples were collected in quick succession at 20 and 40 minutes post-smoking. Approximately two minutes elapsed between the collection of each sample. The very short half-lives observed for Δ^9-THC, CBN, and other cannabinoids (approximately five minutes or less) in exhaled breath would allow for rapid sampling (see Table 6 below)."}, "[4]": {"assay": "Stability of target analytes in the breath collection device", "format": "physicochemical", "excerpt": "In particular, CBN, CBG, and Δ^9-THCV all have a much greater incidence in breath during peak impairment (the first hour after smoking) compared to pre-smoking. […] Stability of the analytes within the breath collection devices was previously established (see Table 4 below)."}, "[5]": {"assay": "Breath/blood Δ^9-THC ratio", "conditions": "all 44 subjects", "excerpt": "We hypothesized that the incorporation of both exhaled breath and blood into a comprehensive recent cannabis use test would confirm recent use of inhaled cannabis within the impairment window, improving the accuracy of the two-point breath testing method. For this purpose, blood samples were collected from the 44 subjects in addition to breath samples and analyzed for Δ^9-THC and other cannabinoids. […] This ratio was computed by dividing the Δ^9-THC peak area ratio to the internal standard in breath by the corresponding peak area ratio in blood."}, "[6]": {"conditions": "separate 20-subject and 23-subject studies (Lynch; Olla); cited from earlier work"}}, "note": "“And” between values parts separate entries of the source, which are not always exact repeats. Equal entries are not always repeated.", "data": [{"smiles": "CCCCCc1cc(O)c2c(c1)OC(C)(C)[C@@H]1CCC(C)=C[C@@H]21", "note": "[Δ^9-THC, Δ^9-tetrahydrocannabinol]", "values": [{"measurement": "detection in subjects' blood samples at baseline prior to smoking", "setting": "[1]", "result": "detected"}, {"measurement": "average baseline Δ^9-THC concentration in blood", "setting": "[1]; 12-24 h abstinence, n=30", "result": "10.5 ± 15", "unit": "ng/mL"}, {"measurement": "baseline Δ^9-THC levels in blood", "setting": "[1]; 16 of 30 subjects", "result": "exceeded 5 ng/mL"}, {"measurement": "median baseline Δ^9-THC concentration in blood", "setting": "[1]; n=30", "result": 6.4, "unit": "ng/mL"}, {"measurement": "Presence in exhaled breath, Percent (%) Positivity", "setting": "[2]; >60 minutes after smoking", "result": "(92.5%)"}, {"measurement": "Presence in exhaled breath, positive/evaluable subjects", "setting": "[2]; >60 minutes after smoking", "result": "37/40"}, {"measurement": "Presence in exhaled breath, positive/evaluable subjects", "setting": "[2]; Baseline (Pre-smoking)", "result": "23/34"}, {"measurement": "Presence in exhaled breath, Percent (%) Positivity", "setting": "[2]; ≤60 minutes after smoking", "result": "(100%)"}, {"measurement": "Presence in exhaled breath, positive/evaluable subjects", "setting": "[2]; ≤60 minutes after smoking", "result": "40/40"}, {"measurement": "Average Half-Life (minutes ± SD) in breath", "setting": "[3]; 0-10 Minutes Post-Smoking", "result": "4.4 ± 2.2", "unit": "min"}, {"measurement": "Average Half-Life (minutes ± SD) in breath", "setting": "[3]; 0-20 Minutes Post-Smoking", "result": "4.2 ± 2.1", "unit": "min"}, {"measurement": "Average Half-Life (minutes ± SD) in breath", "setting": "[3]; 20-40 Minutes Post-Smoking", "result": "8.1 ± 2.3", "unit": "min"}, {"measurement": "Average Half-Life (minutes ± SD) in breath", "setting": "[3]; 20-60 Minutes Post-Smoking", "result": "12.8 ± 8.8", "unit": "min"}, {"measurement": "Cannabinoid Half-Lives (min) in breath, back-to-back sampling, Average", "setting": "[3]; 20 Minutes Post-Smoking", "result": "3.5 min and 2.2 min"}, {"measurement": "Cannabinoid Half-Lives (min) in breath, back-to-back sampling", "setting": "[3]; 20 Minutes Post-Smoking", "result": "1.9 min (2×) and 2.3 min and 2.1 min and 2.9 min and 2.8 min and 1.0 min and 1.4 min and 1.6 min and 7.3 min and 3.8 min and 11.8 min and 1.2 min and 0.9 min"}, {"measurement": "Average Half-Life (minutes ± SD) in breath", "setting": "[3]; 40-60 Minutes Post-Smoking", "result": "24.4 ± 25.4", "unit": "min"}, {"measurement": "Cannabinoid Half-Lives (min) in breath, back-to-back sampling, Average", "setting": "[3]; 40 Minutes Post-Smoking", "result": 6.1, "unit": "min"}, {"measurement": "Cannabinoid Half-Lives (min) in breath, back-to-back sampling", "setting": "[3]; 40 Minutes Post-Smoking", "result": "2.2 min and 9.9 min and 3.7 min and 5.9 min and 8.6 min"}, {"measurement": "Average Half-Life (minutes ± SD) in breath", "setting": "[3]; 60-80 Minutes Post-Smoking", "result": "35.0 ± 41.7", "unit": "min"}, {"measurement": "Average Half-Life (minutes ± SD) in breath", "setting": "[3]; Pre-Smoking", "result": "28.8 ± 28.7", "unit": "min"}, {"measurement": "half-lives observed in exhaled breath", "setting": "[3]; approximate, summary statement", "result": "five"}, {"measurement": "Analyte Stability (%) at Room Temperature (20-25° C.)", "setting": "[4]; Day 3, breath collection device", "result": 91.3, "unit": "%"}, {"measurement": "Analyte Stability (%) at Room Temperature (20-25° C.)", "setting": "[4]; Day 7, breath collection device", "result": 81.2, "unit": "%"}, {"measurement": "Analyte Stability (%) at Room Temperature (20-25° C.)", "setting": "[4]; Day 10, breath collection device", "result": 82.9, "unit": "%"}, {"measurement": "Analyte Stability (%) at Room Temperature (20-25° C.)", "setting": "[4]; Day 14, breath collection device", "result": 66.2, "unit": "%"}, {"measurement": "Analyte Stability (%) at Room Temperature (20-25° C.)", "setting": "[4]; Day 30, breath collection device", "result": 55.6, "unit": "%"}, {"measurement": "breath/blood Δ^9-THC ratio", "setting": "[5]; immediately after smoking", "result": "> 2"}, {"measurement": "breath/blood Δ^9-THC ratio", "setting": "[5]; within the first hour after smoking", "result": "≥ 2"}, {"measurement": "pre-smoking detection rates of Δ^9-THC in breath", "setting": "[6]", "result": 100, "unit": "%"}]}]}
